Among the data in patent US8946238B2, “Pyrazolo[1,5-A]pyrimidines as antiviral agents” (Gilead Sciences, Inc., priority 2011, dated 2015) are inhibition values, retold here.

Each structure is given as a SMILES string.

The test system of this experiment is RSV strain A2. The experiment is described as follows: RSV antiviral cytoprotection assay in Hep2 cells (RSV-induced cytopathic effect, Cell TiterGlo). Format: cell-based, Respiratory Syncytial Virus (RSV). As to conditions: human respiratory syncytial virus, HEp-2, 0.5 μM compound; RSV A2-infected Hep2 cells; % inhibition calculated from 4-parameter dose response curve, normalized to 0% and 100%; read-out: Percent inhibition at 0.5 μM. The essentials: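 Hep2 cells were infected with RSV A2 and exposed to 3-fold compound dilutions, either 3,000 cells/well for 4 days (96-well) or 2000 cells/well at MOI 1:1000 for 5 days at 37° C. (384-well). Cytopathic effect was read by Cell TiterGlo luminescence, and EC50 or normalized % inhibition came from curve fits against infected and uninfected controls.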

In general, inhibition refers to how much of the control response was suppressed. Regarding `Cc1cn2nc([C@@H]3CCCCN3C(=O)c3ccccc3S(N)(=O)=O)cc2nc1N1CC[C@H](N)C1` [Compound 45], the inhibition at 0.5 µM was 45%.

With `Cc1cn2nc([C@@H]3CCCCN3C(=O)c3ncccc3Br)cc2nc1N1CC[C@H](N)C1` [Compound 76], the inhibition at 0.5 µM is 99%. Next, `Cc1cn2nc([C@@H]3CCCCN3C(=O)c3ccccc3OC3CCCC3)cc2nc1N1CC[C@H](N)C1` [Compound 66]: 95%. Turning to `Cc1cn2nc([C@@H]3CCCCN3C(=O)c3cc(F)cc4nc(C)c(C)nc34)cc2nc1N1CC[C@H](N)C1` [Compound 62], the inhibition at 0.5 µM was 11%. The value for `CN[C@H]1CCN(c2nc3cc([C@@H]4CCCCN4C(=O)c4cc(Cl)ccc4NS(C)(=O)=O)nn3cc2C)C1` [Compound 11] was 92%. The value for `Cc1cn2nc([C@@H]3CCCCN3C(=O)c3cc(Cl)ccc3NS(C)(=O)=O)cc2nc1N1C[C@@H](C#N)[C@@H](OC(=O)c2cccnc2)C1` [Compound 208] was 100%; that for `Cc1cn2nc([C@@H]3CCCCN3C(=O)c3ccc(F)cn3)cc2nc1N1CC[C@H](N)C1` [Compound 26] was 84%; that for `COc1cc(C)c(C(=O)N2CCCC[C@H]2c2cc3nc(N4C[C@@H](C#N)[C@@H](O)C4)c(C)cn3n2)cc1C` [Compound 167] was 100%. Next, `COc1cccc(C(=O)N2CCCC[C@H]2c2cc3nc(N4C[C@@H](C#N)[C@@H](O)C4)c(C)cn3n2)c1C` [Compound 165]: 92%; `Cc1cn2nc([C@@H]3CCCCN3C(=O)c3csc4c3CCCC4)cc2nc1N1C[C@@H](C#N)[C@@H](O)C1` [Compound 183]: 100%. `COc1ccsc1C(=O)N1CCCC[C@H]1c1cc2nc(N3C[C@@H](C#N)[C@@H](O)C3)c(C)cn2n1` [Compound 178]: the inhibition at 0.5 µM is 100%.

For `COc1cc2c(cc1C(=O)N1CCCC[C@H]1c1cc3nc(N4C[C@@H](C#N)[C@@H](O)C4)c(C)cn3n1)CCC2` [Compound 132], the inhibition at 0.5 µM was 97%. As for `Cc1cn2nc([C@@H]3CCCCN3C(=O)c3ccc4cccc(F)c4n3)cc2nc1N1C[C@@H](C#N)[C@@H](O)C1` [Compound 133], the inhibition at 0.5 µM is 56%. `Cc1cn2nc([C@@H]3CCCCN3C(=O)c3cccc(F)c3Cl)cc2nc1N1CC[C@H](N)C1` [Compound 30]: the inhibition at 0.5 µM is 100%. Next, `COc1ccccc1C(=O)N1CCCC[C@H]1c1cc2nc(N3C[C@@H](C#N)[C@@H](O)C3)c(C)cn2n1` [Compound 113]: 100%; `Cc1cn2nc([C@@H]3CCCCN3C(=O)c3ccc(F)c(F)c3C)cc2nc1N1C[C@@H](C#N)[C@@H](O)C1` [Compound 149]: 100%.

For the compound `Cc1cn2nc([C@@H]3CCCCN3C(=O)c3ncccc3Cl)cc2nc1N1C[C@@H](C#N)[C@@H](O)C1` [Compound 115], the inhibition at 0.5 µM is 98%.

Take `Cc1ccc(C(=O)N2CCCC[C@H]2c2cc3nc(N4CC[C@H](N)C4)c(C)cn3n2)c(C(F)(F)F)c1` [Compound 36]: the inhibition at 0.5 µM is 98%. The value for `Cc1cn2nc([C@@H]3CCCCN3C(=O)c3cccc(CO)n3)cc2nc1N1CC[C@H](N)C1` [Compound 70] was 56%; that for `Cc1cn2nc([C@@H]3CCCCN3C(=O)c3cc(Cl)ccc3NS(C)(=O)=O)cc2nc1N1C[C@@H]2C[C@H]1CN2` [Compound 18] was 70%. `Cc1cn2nc([C@@H]3CCCCN3C(=O)c3cccc(F)n3)cc2nc1N1CC[C@H](N)C1` [Compound 81]: the inhibition at 0.5 µM is 96%. Next, `Cc1cn2nc([C@@H]3CCCCN3C(=O)c3cc(C(F)(F)F)ccn3)cc2nc1N1CC[C@H](N)C1` [Compound 86]: 80%. The value for `Cc1cn2nc([C@@H]3CCCCN3C(=O)c3cc(Cl)ccc3NS(C)(=O)=O)cc2nc1N1C[C@@H](N)C[C@@H]1C(=O)O` [Compound 19] was 70%.

Take `COc1ccc(F)c(C(=O)N2CCCC[C@H]2c2cc3nc(N4CC[C@H](N)C4)c(C)cn3n2)n1` [Compound 107]: the inhibition at 0.5 µM is 100%. As for `COc1ccc(S(N)(=O)=O)cc1C(=O)N1CCCC[C@H]1c1cc2nc(N3CC[C@H](N)C3)c(C)cn2n1` [Compound 29], the inhibition at 0.5 µM was 71%. The value for `Cc1cn2nc([C@@H]3CCCCN3C(=O)c3ccccc3[S+](C)[O-])cc2nc1N1CC[C@H](N)C1` (stereo partly drawn) [Compound 103] was 100%. The value for `Cc1ccc(Cl)cc1C(=O)N1CCCC[C@H]1c1cc2nc(N3C[C@@H](C#N)[C@@H](O)C3)c(C)cn2n1` [Compound 202] was 100%. Consider `Cc1cn2nc([C@@H]3CCCCN3C(=O)c3cccc4c3OCO4)cc2nc1N1C[C@@H](C#N)[C@@H](O)C1` [Compound 140], for which the inhibition at 0.5 µM was 100%. For the compound `Cc1cccnc1C(=O)N1CCCC[C@H]1c1cc2nc(N3C[C@@H](C#N)[C@@H](O)C3)c(C)cn2n1` [Compound 159], the inhibition at 0.5 µM is 91%.

`Cc1cn2nc([C@@H]3CCCCN3C(=O)c3ccc(-c4ccccc4)cn3)cc2nc1N1CC[C@H](N)C1` [Compound 42]: the inhibition at 0.5 µM is 9%. Next, `Cc1cn2nc([C@@H]3CCCCN3C(=O)c3cc(Cl)ccc3NS(C)(=O)=O)cc2nc1N1CC(C)NC(C)C1` (stereo partly drawn) [Compound 20]: 63%; `Cc1cnc2c(C(=O)N3CCCC[C@H]3c3cc4nc(N5CC[C@H](N)C5)c(C)cn4n3)c(Cl)ccc2c1` [Compound 95]: 21%; `Cc1cn2nc([C@@H]3CCCCN3C(=O)c3ccc(-n4cncn4)cc3Cl)cc2nc1N1CC[C@H](N)C1` [Compound 102]: 16%. `Cc1cn2nc([C@@H]3CCCCN3C(=O)c3cccc(F)c3Cl)cc2nc1N1C[C@@H](C#N)[C@@H](O)C1` [Compound 116]: the inhibition at 0.5 µM is 100%. Next, `Cc1cn2nc([C@@H]3CCCCN3C(=O)c3cc(F)ccc3C(F)(F)F)cc2nc1N1CC[C@H](N)C1` [Compound 109]: 100%. Turning to `Cc1ccc(Br)c(C(=O)N2CCCC[C@H]2c2cc3nc(N4C[C@@H](C#N)[C@@H](O)C4)c(C)cn3n2)c1` [Compound 171], the inhibition at 0.5 µM is 100%. Next, `Cc1cn2nc([C@@H]3CCCCN3C(=O)c3ccc(C)c(F)c3F)cc2nc1N1CC[C@H](N)C1` [Compound 33]: 99%; `Cc1cn2nc([C@@H]3CCCCN3C(=O)c3ccc(C#N)cc3F)cc2nc1N1CC[C@H](N)C1` [Compound 32]: 79%; `Cc1cn2nc([C@@H]3CCCCN3C(=O)c3cc(Cl)ccc3NS(C)(=O)=O)cc2nc1N1C[C@@H](C#N)[C@@H](OP(=O)(O)O)C1` [Compound 192]: 100%. Take `Cc1cn2nc([C@@H]3CCCCN3C(=O)c3cc(Cl)ccc3NS(C)(=O)=O)cc2nc1N1C[C@@H](N)[C@H](c2ccccc2)C1` [Compound 4]: the inhibition at 0.5 µM was 100%. The value for `COc1cc(C)ccc1C(=O)N1CCCC[C@H]1c1cc2nc(N3CC[C@H](N)C3)c(C)cn2n1` [Compound 92] was 100%; that for `Cc1cn2nc([C@@H]3CCCCN3C(=O)c3cccc4ccncc34)cc2nc1N1CC[C@H](N)C1` [Compound 46] was 100%. Next, `Cc1ccc(N2CCCS2(=O)=O)c(C(=O)N2CCCC[C@H]2c2cc3nc(N4C[C@@H](C#N)[C@@H](O)C4)c(C)cn3n2)c1` [Compound 197]: 100%; `Cc1ccc(C(=O)N2CCCC[C@H]2c2cc3nc(N4CC[C@H](N)C4)c(C)cn3n2)c(Cl)c1` [Compound 49]: 99%.

As for `COc1ccccc1C(=O)N1CCCC[C@H]1c1cc2nc(N3CC[C@H](N)C3)c(C)cn2n1` [Compound 27], the inhibition at 0.5 µM was 100%.

As to `Cc1ccc(F)cc1C(=O)N1CCCC[C@H]1c1cc2nc(N3C[C@@H](C#N)[C@@H](O)C3)c(C)cn2n1` [Compound 156], the inhibition at 0.5 µM was 100%.

For the compound `Cc1cn2nc([C@@H]3CCCCN3C(=O)c3ccsc3)cc2nc1N1C[C@@H](C#N)[C@@H](O)C1` [Compound 181], the inhibition at 0.5 µM was 83%. On to `Cc1cn2nc([C@@H]3CCCCN3C(=O)c3cc(Cl)ccc3NS(C)(=O)=O)cc2nc1N1C[C@H](N)C[C@@H]1C(=O)O` [Compound 14], for which the inhibition at 0.5 µM is 81%.

`Cc1cc(F)c(F)cc1C(=O)N1CCCC[C@H]1c1cc2nc(N3C[C@@H](C#N)[C@@H](O)C3)c(C)cn2n1` [Compound 153]: the inhibition at 0.5 µM is 100%. Next, `Cc1ccc(C(F)(F)F)c(C(=O)N2CCCC[C@H]2c2cc3nc(N4CC[C@H](N)C4)c(C)cn3n2)c1` [Compound 35]: 100%; `Cc1ccnc(C(=O)N2CCCC[C@H]2c2cc3nc(N4CC(C#N)[C@@H](O)C4)c(C)cn3n2)c1` (stereo partly drawn) [Compound 196]: 96%; `Cc1cn2nc([C@@H]3CCCCN3C(=O)c3csc4ccc(Br)cc34)cc2nc1N1CC[C@H](N)C1` [Compound 99]: 100%. Next, `Cc1ccc(C(=O)N2CCCC[C@H]2c2cc3nc(N4C[C@@H](C#N)[C@@H](O)C4)c(C)cn3n2)c(Cl)c1` [Compound 131]: 96%; `Cc1cn2nc([C@@H]3CCCCN3C(=O)c3cc(Cl)ccc3NS(C)(=O)=O)cc2nc1NC(CN)c1ccccc1` (stereo partly drawn) [Compound 8]: 90%.

`COC(=O)[C@H]1C[C@H](N)CN1c1nc2cc([C@@H]3CCCCN3C(=O)c3cc(Cl)ccc3NS(C)(=O)=O)nn2cc1C` [Compound 9]: the inhibition at 0.5 µM is 99%. Next, `Cc1cn2nc([C@@H]3CCCCN3C(=O)c3cccc4c3CCCN4)cc2nc1N1C[C@@H](C#N)[C@@H](O)C1` [Compound 139]: 100%; `CCS(=O)(=O)c1ccc(F)c(C(=O)N2CCCC[C@H]2c2cc3nc(N4C[C@@H](C#N)[C@@H](O)C4)c(C)cn3n2)c1` [Compound 145]: 60%.
